Legend:
A. viscosus biofilm = test: Single species A. viscosus biofilm assay (Biofilm Eradication Concentration, BEC50); format: cell-based; details: for BEC50 of Active + 50 ppm TBHQ: active combined with 50 ppm TBHQ; for BEC50 of Active Alone: lowest concentration with greater than 50% reduction in biofilm biomass relative to control, TBHQ tested at 50 ppm
Description: TBHQ and a series of actives were tested in single species of A. viscosus biofilm assay.

IL-6 = test: Anti-inflammatory efficacy in cells triggered by HKPG: IL-6 level; format: cell-based, human
Description: (§1) The anti-inflammatory efficacy of TBHQ in neat solution against several inflammation cytokines was evaluated. Human fibroblast (HEPM) cells or human macrophage (U937) cells were used in these tests. Inflammation was triggered by Heat Killed P. gingivalis (HKPG). TBHQ at various doses was co-incubated with cells treated with HKPG, and the levels of inflammatory markers were observed.

F. nucleatum = test: Minimum inhibitory concentration (MIC) of TBHQ; format: cell-based
IL-1b = test: Anti-inflammatory efficacy in cells triggered by HKPG: IL-1b level; format: cell-based, human
Description: as §1

common pathogens = test: Antimicrobial activity relative to known antimicrobial agents; format: cell-based
PGE2 = test: Anti-inflammatory efficacy in cells triggered by Heat Killed P. gingivalis (HKPG): PGE2 level; format: cell-based, human
Description: as §1

A. viscosus = test: Minimum inhibitory concentration (MIC) of TBHQ; format: cell-based
P. gingivalis = test: Minimum inhibitory concentration (MIC) of TBHQ; format: cell-based
TNF-α = test: Anti-inflammatory efficacy in cells triggered by HKPG: TNF-α level; format: cell-based, human
Description: as §1

[1] = TBHQ 10 ppm, HKPG-treated cells
[2] = TBHQ 100 ppm, HKPG-treated cells

[Cl][Sn][Cl] [Stannous chloride]
BEC50 of Active + 50 ppm TBHQ (A. viscosus biofilm): 39 ppm
BEC50 of Active Alone (A. viscosus biofilm): 156.3 ppm

CC(C)(C)c1cc(O)ccc1O [TBHQ, 2-t-butyl-p-hydroquinone]
IL-6 (IL-6; TBHQ 1 ppm, HKPG-treated cells (HKPG alone 1753, untreated 42)): 405 pg/mL
IL-6 (IL-6; [1]): 100 pg/mL
IL-6 (IL-6; [2]): 23 pg/mL
MIC (F. nucleatum): 62.5 ppm
IL-1b (IL-1b; TBHQ 1 ppm, HKPG-treated cells (HKPG alone 85, untreated 63)): 88 pg/mL
IL-1b (IL-1b; [1]): 55 pg/mL
IL-1b (IL-1b; [2]): 29 pg/mL
antimicrobial activity, times lower than known antimicrobial agent (common pathogens; relative to cetylpyridinium chloride (CPC)): 60 times
antimicrobial activity, times lower than known antimicrobial agent (common pathogens; relative to triclosan): 20 times
PGE2 level (PGE2; TBHQ 0.9 ppm, HKPG-treated cells): 1323 pg/mL
PGE2 level (PGE2; TBHQ 1.8 ppm, HKPG-treated cells): 1378 pg/mL
PGE2 level (PGE2; TBHQ 3.9 ppm, HKPG-treated cells): 1327 pg/mL
PGE2 level (PGE2; TBHQ 7.8 ppm, HKPG-treated cells): 1563 pg/mL
PGE2 level (PGE2; TBHQ 15.6 ppm, HKPG-treated cells): 1249 pg/mL
PGE2 level (PGE2; TBHQ 31.2 ppm, HKPG-treated cells): 1124 pg/mL
PGE2 level (PGE2; TBHQ 62.5 ppm, co-incubated with HKPG-treated cells (HKPG alone 1743, untreated 1579)): 764 pg/mL
MIC (A. viscosus): 62.5 ppm
MIC (P. gingivalis): 62.5 ppm
reduction in biofilm biomass (A. viscosus biofilm; TBHQ alone at 12.5 ppm): ≤ 50%
reduction in biofilm biomass (A. viscosus biofilm; TBHQ alone at 50 ppm): ≤ 50%
BEC50 (A. viscosus biofilm; Table 3, TBHQ at 12.5 ppm, alone or with zinc oxide slurry): Not measurable
BEC50 of Active Alone (A. viscosus biofilm): Not measurable
TNF-α (TNF-α; TBHQ 1 ppm, HKPG-treated cells (HKPG alone 194, untreated 15)): 198 pg/mL
TNF-α (TNF-α; [1]): 68 pg/mL
TNF-α (TNF-α; [2]): 7 pg/mL

COc1cc(CCC(=O)CC(=O)CCc2ccc(O)c(OC)c2)ccc1O [Tetra-hydrocurcumin]
BEC50 of Active + 50 ppm TBHQ (A. viscosus biofilm): 1.22 ppm
BEC50 of Active Alone (A. viscosus biofilm): >2500 ppm

Oc1cc(Cl)ccc1Oc1ccc(Cl)cc1Cl [Triclosan, reference compound]
BEC50 of Active + 50 ppm TBHQ (A. viscosus biofilm): <0.03 ppm
BEC50 of Active Alone (A. viscosus biofilm): 0.49 ppm

O=C([O-])CC(O)(CC(=O)[O-])C(=O)[O-].O=C([O-])CC(O)(CC(=O)[O-])C(=O)[O-].[Zn+2].[Zn+2].[Zn+2] [Zinc Citrate]
BEC50 of Active + 50 ppm TBHQ (A. viscosus biofilm): 19.5 ppm
BEC50 of Active Alone (A. viscosus biofilm): 78.1 ppm

From patent publication US9119879B2, “Oral care compositions comprising a quinone and a further antimicrobial agent” (Colgate-Palmolive Company, priority 2010, dated 2015)
